The values below come from patent US20120149081A1, “METHOD FOR FERMENTATION CULTURE IN MEDIUM CONTAINING XYLOSE” (priority 2010, published 2012).

The test system of test [1] is recombinant yeast W801M strain. In words: Simultaneous (glucose/xylose) fermentation test in medium supplemented with amino acid, primary screening. As to conditions: hour 8 after start, amino acid amount per Table 3; for ΔXylose 0-8 h (decreased amount of xylose): YNGXAc+U medium (10 g/l xylose, 10 g/l glucose), 30° C., initial OD600=10, n=2; for Control ratio % (ΔXylose 0-8 h relative to no-addition control): YNGXAc+U medium, n=2. The format is cell-based, Saccharomyces cerevisiae. As for the experimental part: (§1) The W801M strain prepared as described above was cultured in 5 ml of an YNG+U (6.7 g/l Yeast Nitrogen Base without amino acids, 20 g/l glucose, 20 mg/l uracil) liquid medium prepared in a test tube at 30° C. and 80 rpm for 24 hours, thereby preparing a pre-pre-culture solution. Next, the pre-pre-culture solution (5 ml) was added to new YNX+U liquid medium (250 ml) prepared in a baffled Erlenmeyer flask, followed by pre-culture at 30° C. and 100 rpm. After 48 hours of culture, the culture solution was subjected to 5 minutes of centrifugation at 1000×g at room temperature, thereby removing the supernatant.
(§2) To prevent the introduction of the substrate into the pre-culture solution, the thus collected microbial pellet was suspended in sterile water and then subjected to centrifugation at 1000×g for 5 minutes, thereby collecting microorganisms. Washing was performed twice. After washing, microorganisms were suspended in sterile water, so that a microbial solution was prepared. A sodium acetate buffer was added to the fermentation medium so as to suppress a pH decrease in the medium associated with fermentation. The microbial solution was added to an YNGXAc+U medium (6.7 g/l Yeast Nitrogen Base without amino acids, 10 g/l D-Xylose, 10 g/l Glucose, 25 mM sodium acetate, 20 mg/l uracil, pH 5.0) so that the initial microbial concentration was OD600=10. One type of amino acid was added to the YNGXAc+U medium to result in a predetermined concentration, and then the medium was used. Amino acid was dissolved in water to a concentration 10 times greater than the final concentration. Then the solution was adjusted to pH 5.0, diluted, and then used. The fermentation test was conducted as follows. Five (5) ml of the culture solution was added to a 15-ml plastic tube with a screw cap, the tube was sealed with the cap, and then the tube was shaken at 30° C. (100 rpm). Sampling from the culture solution was performed over time and thus substrates (xylose and glucose) and the product (ethanol) were analyzed via liquid chromatography. Liquid chromatography was performed using a Shim-pack SPR-Pb column (Shimadzu Corporation) at 80° C. An RID-10A refractive index detector (Shimadzu Corporation) was used. Water was used for a mobile phase and sent at a flow rate of 0.8 ml/min.
A fermentation test was conducted (n=2) using as a control an YNGXAc+U medium to which nothing had been added, an YNGXAc+U medium supplemented with casamino acid (CAA, 20 g/L) (that is, an amino acid mixture obtained via hydrolysis of casein) and YNGXAc+U medium supplemented with 18 types of amino acids considered to be contained in casamino acid (20 g/L) or 2 types of amino acid (glutamine and asparagine) (5 g/L) considered not to be contained in casamino acid. The results of the measurement of the decreased amounts of xylose at hour 8 after the start of the fermentation test are shown in Table 3.

Test [2] concerns recombinant yeast W801M strain. Nature of the test: Simultaneous (glucose/xylose) fermentation test in medium supplemented with amino acid, secondary test. Conditions: n=4. The format is cell-based, Saccharomyces cerevisiae. As for the experimental part:
as §1, §2
In addition, 8 hours later, glucose had been completely consumed and thus was not detected in any samples.
Also, 2 hours later, glucose remained in all samples.
Also, 22 hours later, both glucose and xylose had been completely consumed and thus was not detected. It was understood from the results that the microbial concentrations had increased from the initial microbial concentration of OD600=10 to around OD600=15 at hour 22. However, the microbial concentrations at hour 22 when the amino acids were added were equivalent to or lower than that of the control.

Turning to `C[C@H](N)C(=O)O` [Ala, alanine], in test [1], the “ΔXylose 0-8 h (decreased amount of xylose)” value turned out to be 2.95 g/L and the “Control ratio % (ΔXylose 0-8 h relative to no-addition control)” value stood at 111%.
For `N=C(N)NCCC[C@H](N)C(=O)O` [Arg, arginine] the same measures were 2.91 g/L and 109%.
Consider `NC(=O)C[C@H](N)C(=O)O` [Asn, asparagine], for which, in test [1], the “ΔXylose 0-8 h (decreased amount of xylose)” value came to 3.60 g/L and the “Control ratio % (ΔXylose 0-8 h relative to no-addition control)” value is 135%. The “xylose consumption rate compared with the control (decreased amount of xylose at hour 8, FIG. 7)” value in test [2] (amino acid added at 0.3 g/L) is reported as “Significant effects of improvement”. Further, the “xylose consumption rate compared with the control (decreased amount of xylose at hour 8, FIG. 7)” value in test [2] (amino acid added at 1 g/L) was “Significant effects of improvement”.
With `N[C@@H](CC(=O)O)C(=O)O` [Asp, aspartic acid], in test [1], the “ΔXylose 0-8 h (decreased amount of xylose)” value was found to be 2.46 g/L and the “Control ratio % (ΔXylose 0-8 h relative to no-addition control)” value turned out to be 92%.
For the compound `N[C@@H](CS)C(=O)O` [Cys], in test [1], the “ΔXylose 0-8 h (decreased amount of xylose)” value stood at 2.81 g/L and the “Control ratio % (ΔXylose 0-8 h relative to no-addition control)” value worked out at 106%.
With `NC(=O)CC[C@H](N)C(=O)O` [Gln, glutamine], in test [1], the “ΔXylose 0-8 h (decreased amount of xylose)” value was found to be 3.05 g/L and the “Control ratio % (ΔXylose 0-8 h relative to no-addition control)” value stood at 115%.
With `N[C@@H](CCC(=O)O)C(=O)O` [Glu, glutamic acid], in test [1], the “ΔXylose 0-8 h (decreased amount of xylose)” value was 2.25 g/L and the “Control ratio % (ΔXylose 0-8 h relative to no-addition control)” value was 85%.
Turning to `NCC(=O)O` [Gly], in test [1], the “ΔXylose 0-8 h (decreased amount of xylose)” value amounted to 3.03 g/L and the “Control ratio % (ΔXylose 0-8 h relative to no-addition control)” value was determined as 114%.
As to `N[C@@H](Cc1c[nH]cn1)C(=O)O` [His, histidine], in test [1], the “ΔXylose 0-8 h (decreased amount of xylose)” value was determined as 3.26 g/L and the “Control ratio % (ΔXylose 0-8 h relative to no-addition control)” value was found to be 122%. The “xylose consumption rate compared with the control (decreased amount of xylose at hour 8, FIG. 7)” value in test [2] (amino acid added at 0.3 g/L) was “Significant effects of improvement”.
For the compound `CC[C@H](C)[C@H](N)C(=O)O` [Ile], in test [1], the “ΔXylose 0-8 h (decreased amount of xylose)” value came out at 2.09 g/L and the “Control ratio % (ΔXylose 0-8 h relative to no-addition control)” value worked out at 79%.
For the compound `CC(C)C[C@H](N)C(=O)O` [Leu, leucine], in test [1], the “ΔXylose 0-8 h (decreased amount of xylose)” value was found to be 1.12 g/L and the “Control ratio % (ΔXylose 0-8 h relative to no-addition control)” value was found to be 42%.
Turning to `NCCCC[C@H](N)C(=O)O` [Lys], in test [1], the “ΔXylose 0-8 h (decreased amount of xylose)” value turned out to be 3.08 g/L and the “Control ratio % (ΔXylose 0-8 h relative to no-addition control)” value was 116%.
For `CSCC[C@H](N)C(=O)O` [Met] the same measures were 2.67 g/L and 100%.
In the case of `N[C@@H](Cc1ccccc1)C(=O)O` [Phe], in test [1], the “ΔXylose 0-8 h (decreased amount of xylose)” value is 2.79 g/L and the “Control ratio % (ΔXylose 0-8 h relative to no-addition control)” value is 105%.
Turning to `O=C(O)[C@@H]1CCCN1` [Pro], in test [1], the “ΔXylose 0-8 h (decreased amount of xylose)” value is 2.97 g/L and the “Control ratio % (ΔXylose 0-8 h relative to no-addition control)” value was found to be 112%.
For `N[C@@H](CO)C(=O)O` [Ser, serine], the “ΔXylose 0-8 h (decreased amount of xylose)” value in test [1] was 3.42 g/L. Further, in test [1], the “Control ratio % (ΔXylose 0-8 h relative to no-addition control)” value amounted to 128%. Further, the “xylose consumption rate compared with the control (decreased amount of xylose at hour 8, FIG. 7)” value in test [2] (amino acid added at 0.3 g/L) and in test [2] (amino acid added at 1 g/L) was “Significant effects of improvement” throughout.
As for `C[C@@H](O)[C@H](N)C(=O)O` [Thr, threonine], in test [1], the “ΔXylose 0-8 h (decreased amount of xylose)” value turned out to be 3.29 g/L and the “Control ratio % (ΔXylose 0-8 h relative to no-addition control)” value is given as 124%. Besides, the “xylose consumption rate compared with the control (decreased amount of xylose at hour 8, FIG. 7)” value in test [2] (amino acid added at 0.3 g/L) is recorded as “Significant effects of improvement”. Besides, the “xylose consumption rate compared with the control (decreased amount of xylose at hour 8, FIG. 7)” value in test [2] (amino acid added at 1 g/L) is given as “Significant effects of improvement”.
Consider `N[C@@H](Cc1c[nH]c2ccccc12)C(=O)O` [Trp], for which, in test [1], the “ΔXylose 0-8 h (decreased amount of xylose)” value was 3.07 g/L and the “Control ratio % (ΔXylose 0-8 h relative to no-addition control)” value amounted to 115%.
Consider `N[C@@H](Cc1ccc(O)cc1)C(=O)O` [Tyr, tyrosine], for which, in test [1], the “ΔXylose 0-8 h (decreased amount of xylose)” value came out at 3.62 g/L and the “Control ratio % (ΔXylose 0-8 h relative to no-addition control)” value is 136%. The “xylose consumption rate compared with the control (decreased amount of xylose at hour 8, FIG. 7)” value in test [2] (amino acid added at 1 g/L) is “Significant effects of improvement”.
Turning to `CC(C)[C@H](N)C(=O)O` [Val, valine], in test [1], the “ΔXylose 0-8 h (decreased amount of xylose)” value stood at 2.67 g/L and the “Control ratio % (ΔXylose 0-8 h relative to no-addition control)” value was 100%.
